The values below come from PubChem BioAssay AID624129 (Sanford-Burnham Center for Chemical Genomics, 2012).

Holding throughout (test): CXCR6 receptor antagonists, dose response, cell-based, beta-arrestin, DiscoveRx, APJ panel, uHTS hits (AID 624129)
Assay [1] addresses Apelin receptor (Homo sapiens) (UniProt P35414). The following applies: CXCR6 beta-arrestin (DiscoveRx) antagonist cell assay, APJ.
Assay [2] addresses Beta-galactosidase (Escherichia coli) (UniProt Q8VNN2). To be noted: CXCR6 beta-arrestin (DiscoveRx) antagonist cell assay, b-galactosidase.
Assay [3] addresses C-C chemokine receptor type 6 (Homo sapiens) (UniProt P51684). To be noted: CXCR6 beta-arrestin (DiscoveRx) antagonist cell assay.
The target in assay [4] is C-X-C chemokine receptor type 6 (Homo sapiens) (UniProt O00574). The following applies: CXCR6 beta-arrestin (DiscoveRx) antagonist cell assay; for inhibition: CXCR6, run 1, dose range 2, at 80 µM (top of the series).
Setting [5] is: dose range 1, mean IC50 across replicates.
[6] abbreviates: CCR6, dose range 1, mean IC50 across replicates.
The mark [7] stands for this setting: CXCR6, dose range 1, mean IC50 across replicates.

SMILES strings stand for the structures. Activity calls are given as the source filed them. The rule behind the calls is not given here. Some results are limits rather than exact numbers.

Sequence of Beta-galactosidase (Escherichia coli) (Q8VNN2 whole entry, looked up): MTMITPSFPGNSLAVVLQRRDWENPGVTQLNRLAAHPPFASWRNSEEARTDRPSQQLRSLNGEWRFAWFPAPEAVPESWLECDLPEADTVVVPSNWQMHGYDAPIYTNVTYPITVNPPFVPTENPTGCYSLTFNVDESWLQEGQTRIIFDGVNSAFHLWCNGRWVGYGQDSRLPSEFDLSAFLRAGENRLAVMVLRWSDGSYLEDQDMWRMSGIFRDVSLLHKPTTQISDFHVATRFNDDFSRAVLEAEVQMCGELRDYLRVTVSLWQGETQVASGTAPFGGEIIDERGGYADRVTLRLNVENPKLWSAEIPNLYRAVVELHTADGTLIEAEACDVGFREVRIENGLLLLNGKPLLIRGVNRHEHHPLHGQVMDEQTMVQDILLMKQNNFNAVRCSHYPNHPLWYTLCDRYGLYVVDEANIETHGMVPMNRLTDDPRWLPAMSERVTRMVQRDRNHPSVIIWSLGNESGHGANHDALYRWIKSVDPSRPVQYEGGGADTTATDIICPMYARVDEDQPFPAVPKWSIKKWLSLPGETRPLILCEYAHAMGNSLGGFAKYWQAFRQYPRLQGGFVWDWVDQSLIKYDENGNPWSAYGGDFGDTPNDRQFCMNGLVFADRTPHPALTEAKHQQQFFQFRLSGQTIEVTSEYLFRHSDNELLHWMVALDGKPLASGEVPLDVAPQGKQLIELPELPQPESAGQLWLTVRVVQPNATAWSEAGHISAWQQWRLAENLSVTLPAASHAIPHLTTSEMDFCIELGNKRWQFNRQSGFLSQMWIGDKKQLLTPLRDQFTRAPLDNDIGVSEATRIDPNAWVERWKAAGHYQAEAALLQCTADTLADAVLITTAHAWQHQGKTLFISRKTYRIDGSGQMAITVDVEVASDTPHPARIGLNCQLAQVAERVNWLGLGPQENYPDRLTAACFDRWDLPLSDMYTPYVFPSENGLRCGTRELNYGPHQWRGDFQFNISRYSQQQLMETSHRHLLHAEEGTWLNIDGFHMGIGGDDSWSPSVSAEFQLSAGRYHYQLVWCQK
Sequence of C-X-C chemokine receptor type 6 (Homo sapiens) (O00574 whole entry, looked up): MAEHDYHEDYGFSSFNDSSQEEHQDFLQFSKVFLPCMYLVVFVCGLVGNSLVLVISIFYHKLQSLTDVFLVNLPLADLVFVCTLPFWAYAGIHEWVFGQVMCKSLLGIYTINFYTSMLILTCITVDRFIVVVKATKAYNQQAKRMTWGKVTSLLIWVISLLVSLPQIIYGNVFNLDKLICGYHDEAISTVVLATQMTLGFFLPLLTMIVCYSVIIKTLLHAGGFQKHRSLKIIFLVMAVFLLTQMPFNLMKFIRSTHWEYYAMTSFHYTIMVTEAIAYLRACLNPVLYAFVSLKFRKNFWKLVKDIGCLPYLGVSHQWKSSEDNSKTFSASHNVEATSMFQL

By IC50 is commonly meant the point on the concentration scale where inhibition reaches its midpoint. `Fc1ccc(NC(=S)Nc2nccs2)cc1`: the IC50 in assay [1] (dose range 1) was 13.6 µM; in assay [1] (setting [5]), 13.7 µM; in assay [1] (run 2, dose range 1), 14.1 µM; in assay [1] (run 3, dose range 1), 13.3 µM; in assay [2] (dose range 1) it was > 80 µM (inactive); in assay [2] (setting [5]) it was more than 80 µM. The IC50 in assay [3] (CCR6, dose range 1) is 10.8 µM; in assay [3] (setting [6]), 12.6 µM; in assay [3] (CCR6, run 2, dose range 1), 14.3 µM; in assay [4] (setting [7]), 14.1 µM; in assay [4] (CXCR6, run 1, dose range 2), 8.52 µM; in assay [4] (CXCR6, run 2, dose range 1), 14 µM. This molecule also showed a half-inhibitory concentration (IC50) in assay [4] (CXCR6, run 2, dose range 2) of 13.3 µM. In addition, the IC50 result in assay [4] (CXCR6, dose range 1) was “inactive”.

Regarding `C=C1C(=O)O[C@@H]2C[C@@H](C)[C@@H]3C=CC(=O)[C@@]3(C)[C@@H](OC(=O)CC(=O)O[C@H]3[C@@H]4C(=C)C(=O)O[C@@H]4C[C@@H](C)[C@@H]4C=CC(=O)[C@]43C)[C@H]12`, the IC50 was 4.62 µM in assay [1] (dose range 1); 4.97 µM in assay [1] (setting [5]); 5.28 µM in assay [1] (run 2, dose range 1); 5.02 µM in assay [1] (run 3, dose range 1); > 80 µM (inactive) in assay [2] (dose range 1); more than 80 µM in assay [2] (setting [5]). Besides, the half-inhibitory concentration (IC50) in assay [3] (CCR6, dose range 1) is 3.11 µM; in assay [3] (setting [6]), 3.35 µM; in assay [3] (CCR6, run 2, dose range 1), 3.59 µM; in assay [4] (CXCR6, dose range 1) it was 4.65 µM; in assay [4] (setting [7]) it was 3.94 µM; in assay [4] (CXCR6, run 1, dose range 2), 3.8 µM. Moreover, the IC50 came out at 4.03 µM in assay [4] (CXCR6, run 2, dose range 1) and 3.28 µM in assay [4] (CXCR6, run 2, dose range 2).

The inhibition is the drop in the measured response relative to a control, in per cent. For the molecule `Cc1[nH][nH]c(=O)c1C(c1c(C)[nH][nH]c1=O)c1cn(Cc2ccc(Cl)c(Cl)c2)c2ccccc12`, the IC50 in assay [1] (dose range 1) is 19.4 µM; in assay [1] (setting [5]) it was 37 µM; in assay [1] (run 2, dose range 1) it was 59.3 µM; in assay [1] (run 3, dose range 1), 32.3 µM; in assay [2] (dose range 1), > 80 µM (inactive); in assay [2] (setting [5]) it was more than 80 µM. Moreover, the IC50 is 16.6 µM in assay [3] (CCR6, dose range 1); 22.1 µM in assay [3] (setting [6]); 27.6 µM in assay [3] (CCR6, run 2, dose range 1); 26.6 µM in assay [4] (setting [7]); 24.8 µM in assay [4] (CXCR6, run 2, dose range 1). For the same molecule, the IC50 entry in assay [4] (CXCR6, dose range 1) was “inactive”. Further, the inhibition in assay [4] was found to be 115%.

For `O=C1C=CC(=O)N1c1cccc(-c2ccccc2)c1`, the IC50 in assay [1] (setting [5]) was 22.8 µM; in assay [1] (run 2, dose range 1), 22.8 µM; in assay [1] (run 3, dose range 1) it was more than 80 µM; in assay [2] (dose range 1) it was > 80 µM (inactive); in assay [2] (setting [5]), more than 80 µM; in assay [3] (CCR6, dose range 1) it was 47 µM. For the same molecule, the IC50 was 47 µM in assay [3] (setting [6]); more than 80 µM in assay [3] (CCR6, run 2, dose range 1); 9.66 µM in assay [4] (CXCR6, dose range 1); 9.66 µM in assay [4] (setting [7]); more than 80 µM in assay [4] (CXCR6, run 2, dose range 1). Further, in assay [4], the inhibition was found to be 21.2%.

For the molecule `COC(=O)C1=C(c2ccc(-c3ccccc3)c(F)c2)C[C@@H]2CC[C@H]1N2C(=O)N1CCC(C)CC1`, the concentration for half-maximal inhibition (IC50) is 8.49 µM in assay [1] (dose range 1); 10.9 µM in assay [1] (setting [5]); 13.8 µM in assay [1] (run 2, dose range 1); 10.3 µM in assay [1] (run 3, dose range 1); > 80 µM (inactive) in assay [2] (dose range 1); more than 80 µM in assay [2] (setting [5]). Also, the half-maximal inhibitory concentration (IC50) in assay [3] (CCR6, dose range 1) is 4.9 µM; in assay [3] (setting [6]) it was 8.25 µM; in assay [3] (CCR6, run 2, dose range 1), 11.6 µM; in assay [4] (setting [7]) it was 11.2 µM; in assay [4] (CXCR6, run 2, dose range 1), 10.8 µM. Moreover, the IC50 result in assay [4] (CXCR6, dose range 1) was “inactive”. In addition, in assay [4], the inhibition is 88%.

For the molecule `C=CS(=O)(=O)c1c2cc(OC)ccc2nc2ccc(OC)cc12`, the IC50 in assay [1] (dose range 1) is 17 µM; in assay [1] (setting [5]), 18.7 µM; in assay [1] (run 2, dose range 1), 18.8 µM; in assay [1] (run 3, dose range 1), 20.2 µM; in assay [2] (dose range 1), > 80 µM (inactive); in assay [2] (setting [5]), more than 80 µM. Further, the IC50 in assay [3] (CCR6, dose range 1) was 10.8 µM; in assay [3] (setting [6]), 11.7 µM; in assay [3] (CCR6, run 2, dose range 1), 12.5 µM; in assay [4] (setting [7]) it was 12.5 µM; in assay [4] (CXCR6, run 2, dose range 1) it was 10.1 µM. Besides, in assay [4] (CXCR6, dose range 1), the IC50 entry is “inactive”. In addition, the inhibition in assay [4] is 117%.

With `CCc1cc2c(=O)[nH]c(-c3ccccn3)nc2s1`, the IC50 in assay [1] (dose range 1) was 1.79 µM; in assay [1] (setting [5]), 2.03 µM; in assay [1] (run 2, dose range 1) it was 2.16 µM; in assay [1] (run 3, dose range 1), 2.13 µM; in assay [2] (dose range 1), > 80 µM (inactive); in assay [2] (setting [5]) it was more than 80 µM. In addition, the IC50 is 1.76 µM in assay [3] (CCR6, dose range 1); 2.43 µM in assay [3] (setting [6]); 3.1 µM in assay [3] (CCR6, run 2, dose range 1); 2.61 µM in assay [4] (CXCR6, dose range 1); 1.76 µM in assay [4] (setting [7]); 1.4 µM in assay [4] (CXCR6, run 1, dose range 2). The IC50 in assay [4] (CXCR6, run 2, dose range 1) was determined as 1.74 µM; in assay [4] (CXCR6, run 2, dose range 2), 1.28 µM.

Take `O=[N+]([O-])c1ccc(Sc2cccc3cccnc23)c([N+](=O)[O-])c1`: the half-inhibitory concentration (IC50) was 3.05 µM in assay [1] (dose range 1); 3.73 µM in assay [1] (setting [5]); 4.26 µM in assay [1] (run 2, dose range 1); 3.89 µM in assay [1] (run 3, dose range 1); > 80 µM (inactive) in assay [2] (dose range 1); more than 80 µM in assay [2] (setting [5]). Moreover, the IC50 in assay [3] (CCR6, dose range 1) was 3.32 µM; in assay [3] (setting [6]), 4.21 µM; in assay [3] (CCR6, run 2, dose range 1) it was 5.09 µM; in assay [4] (CXCR6, dose range 1) it was 5 µM; in assay [4] (setting [7]), 4 µM; in assay [4] (CXCR6, run 1, dose range 2), 3.2 µM. Besides, the IC50 in assay [4] (CXCR6, run 2, dose range 1) was found to be 4.65 µM; in assay [4] (CXCR6, run 2, dose range 2), 3.15 µM.

In the case of `C/C(=N\NC(=O)c1ccc(F)cc1)c1ccccn1`, the concentration for half-maximal inhibition (IC50) is 0.853 µM in assay [1] (dose range 1); 1.01 µM in assay [1] (setting [5]); 1.4 µM in assay [1] (run 2, dose range 1); 0.79 µM in assay [1] (run 3, dose range 1); > 80 µM (inactive) in assay [2] (dose range 1); more than 80 µM in assay [2] (setting [5]). The IC50 in assay [3] (CCR6, dose range 1) is 0.987 µM; in assay [3] (setting [6]), 1.19 µM; in assay [3] (CCR6, run 2, dose range 1), 1.4 µM; in assay [4] (CXCR6, dose range 1) it was 1.55 µM; in assay [4] (setting [7]) it was 1.14 µM; in assay [4] (CXCR6, run 1, dose range 2), 0.861 µM. Further, the IC50 is 1.37 µM in assay [4] (CXCR6, run 2, dose range 1) and 0.779 µM in assay [4] (CXCR6, run 2, dose range 2).
